Data on 22 molecules can be found in patent US11827628B2, “Compositions and methods for inhibition of the JAK pathway” (Rigel Pharmaceuticals, Inc., priority 2005, dated 2023).

For assay [1], the system named is Primary human T-cells. Nature of the assay: Primary Human T-Cell Proliferation Assay Stimulated with IL-2 (CellTiter-Glo). The class given is cell-based. The following applies: Homo sapiens, T-cell, primary human T-cells stimulated with IL-2, proliferation; read-out: IC50, Example 42. In outline:
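IC50 derived from CellTiter-Glo ATP signal after 72 hours of IL-2-driven proliferation at 37° C. Cells: primary human T-cells from blood, stimulated beforehand 3-4 days on anti-CD3/anti-CD28 with IL-2, then rested from IL-2 before compound exposure in duplicate; IL-2-free wells served as unstimulated control.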

For assay [2], the system named is up-regulation of ICAM-1 (CD54) by IFNγ in A549 lung epithelial cells. Nature of the assay: A549 Epithelial Line Stimulated with IFNγ (ICAM-1 surface expression, FACS). It is filed as cell-based, human. The following applies: Homo sapiens, A549, A549 cells stimulated with IFNγ, ICAM-1 expression by FACS; read-out: IC50, Example 43. The source says:
The activity of the compounds of the invention may additionally be characterized by assaying the effect of the 2,4-substituted pyrimidinediamine compounds described herein on A549 lung epithelial cells and U937 cells. A549 lung epithelial cells and U937 cells up-regulate ICAM-1 (CD54) surface expression in response to a variety of different stimuli. Therefore, using ICAM-1 expression as readout, test compound effects on different signaling pathways can be assessed in the same cell type. Stimulation with IL-1β through the IL-1β receptor activates the TRAF6/NFκB pathway resulting in up-regulation of ICAM-1. IFNγ induces ICAM-1 up-regulation through activation of the JAK1/JAK2 pathway. The up-regulation of ICAM-1 can be quantified by flow cytometry across a compound dose curve and EC50, values are calculated. An exemplary assays of this type are described in greater detail in Examples 43 and 44
A549 lung epithelial cells up-regulate ICAM-1 (CD54) surface expression in response to a variety of different stimuli. Therefore, using ICAM-1 expression as readout, compound effects on different signaling pathways can be assessed in the same cell type. IFNγ up-regulates ICAM-1 through activation of the JAK/Stat pathway. In this example, the up-regulation of ICAM-1 by IFNγ was assessed.
The A549 lung epithelial carcinoma cell line originated from the American Type Culture Collection. Routine culturing was with F12K media (Mediatech Inc., Lenexa, KS, Cat. No. 10-025-CV) with 10% fetal bovine serum, 100 I.U. penicillin and […] streptomycin (complete F12k media). Cells were incubated in a humidified atmosphere of 5% CO2 at 37° C. Prior to use in the assay, A549 cells were washed with PBS and trypsinized (Mediatech Inc., Cat. No. 25-052-CI) to lift the cells. The trypsin cell suspension was neutralized with complete F12K media and centrifuged to pellet the cells. The cell pellet was resuspended in complete F12K media at a concentration of 2.0×10^5/mL. Cells were seeded at 20,000 per well, 100 μL total volume, in a flat bottom tissue culture plate and allowed to adhere overnight.
On day two, A549 cells were pre-incubated with a 2,4-substituted pyrimidinediamine test compound or DMSO (control) (Sigma-Aldrich, St. Louis, MO, Catalog No. D2650) for 1 hour. The cells were then stimulated with IFNγ (75 ng/mL) (Peprotech Inc., Rocky Hill, NJ, Cat. No. 300-02) and allowed to incubate for 24 hours. The final test compound dose range was 30 μM to 14 nM in 200 μL F12K media containing 5% FBS, 0.3% DMSO.
On day three, the cell media was removed and the cells were washed with 200 μL PBS (phosphate buffered saline). Each well was trypsinized to dissociate the cells, then neutralized by addition of 200 μL complete F12K media. Cells were pelleted and stained with an APC conjugated mouse anti-human ICAM-1 (CD54) (BD Pharmingen, San Diego, CA, Catalog #559771) antibody for 20 minutes at 4° C. Cells were washed with ice cold FACS buffer (PBS+2% FBS) and surface ICAM-1 expression was analyzed by flow cytometry. Detection was performed using a BD LSR I System Flow Cytometer, purchased from BD Biosciences of San Jose, California Events were gated for live scatter and the geometric mean was calculated (Becton-Dickinson CellQuest software version 3.3, Franklin Lakes, NJ). Geometric means were plotted against the compound concentration to generate a dose response curve.

SMILES strings stand for the structures.

Usually IC50 stands for the concentration that gives 50% inhibition. `C#CCOc1ccc(Nc2nc(Nc3ccc(C)c(S(=O)(=O)NC)c3)ncc2F)cc1` [VI-68, 5-Fluoro-N2-(4-methyl-3-methylaminosulfonylphenyl)-N4-[4-(prop-2-ynyloxy)phenyl]-2,4-pyrimidinediamine]: the IC50 was 742 nM in assay [1] and 26800 nM in assay [2].
For the molecule `NS(=O)(=O)c1cccc(Nc2ncc(F)c(Nc3ccc(CCCF)cc3)n2)c1` [VI-83, N2-(3-Aminosulfonylphenyl)-5-fluoro-N4-[4-(3-fluoropropyl)phenyl]-2,4-pyrimidinediamine], the IC50 in assay [1] stood at 293 nM; in assay [2], 7300 nM.
On the same counts, the results for `Cc1ccc(Nc2ncc(F)c(Nc3ccc(CCCF)cc3)n2)cc1S(N)(=O)=O` [VI-84, N2-(3-Aminosulfonyl-4-methylphenyl)-5-fluoro-N4-[4-(3-fluoropropyl)phenyl]-2,4-pyrimidinediamine] are 514 nM and 4580 nM.
On the same counts, the results for `NS(=O)(=O)c1ccc(Nc2ncc(F)c(Nc3ccc(CCCO)cc3)n2)cc1` [VI-85, N2-(4-Aminosulfonylphenyl)-5-fluoro-N4-[4-(3-hydroxypropyl)phenyl]-2,4-pyrimidinediamine] are 762 nM and 24700 nM.
On the same counts, the results for `NS(=O)(=O)c1cccc(Nc2ncc(F)c(Nc3ccc(CCCO)cc3)n2)c1` [VI-86, N2-(3-Aminosulfonylphenyl)-5-fluoro-N4-[4-(3-hydroxypropyl)phenyl]-2,4-pyrimidinediamine] are 178 nM and 4440 nM.
On to `NS(=O)(=O)c1ccc(Nc2ncc(F)c(Nc3ccc(CCCCO)cc3)n2)cc1` [VI-88, N2-(4-Aminosulfonylphenyl)-5-fluoro-N4-[4-(4-hydroxybutyl)phenyl]-2,4-pyrimidinediamine], for which the IC50 in assay [1] was determined as 1190 nM; in assay [2], 24700 nM.
On the same counts, the results for `NS(=O)(=O)c1cccc(Nc2ncc(F)c(Nc3ccc(CCCCO)cc3)n2)c1` [VI-89, N2-(3-Aminosulfonylphenyl)-5-fluoro-N4-[4-(4-hydroxybutyl)phenyl]-2,4-pyrimidinediamine] are 171 nM and 5760 nM.
On the same counts, the results for `NS(=O)(=O)c1cccc(Nc2ncc(F)c(Nc3ccc(CCCCF)cc3)n2)c1` [VI-92, N2-(3-Aminosulfonylphenyl)-5-fluoro-N4-[4-(4-fluorobutyl)phenyl]-2,4-pyrimidinediamine] are 107 nM and 13000 nM.
On the same counts, the results for `NS(=O)(=O)c1cc(Nc2ncc(F)c(Nc3ccc(O)cc3)n2)ccc1F` [VI-100, N2-(3-Aminosulfonyl-4-fluorophenyl)-5-fluoro-N4-(4-hydroxyphenyl)-2,4-pyrimidinediamine] are 74.3 nM and 9180 nM.
Regarding `Cc1ccc(Nc2ncc(F)c(Nc3ccc(O)cc3)n2)cc1S(N)(=O)=O` [VI-102, N2-(3-Aminosulfonyl-4-methylphenyl)-5-fluoro-N4-[4-hydroxyphenyl]-2,4-pyrimidinediamine], the IC50 stood at 135 nM in assay [1] and 14700 nM in assay [2].
On the same counts, the results for `COc1ccc(Nc2nc(Nc3ccc(N4CCN(C)CC4)c(S(N)(=O)=O)c3)ncc2F)cc1Cl` [VI-116, N2-[3-Aminosulfonyl-4-(4-methylpiperazine-1-yl)phenyl]-N4-(3-chloro-4-methoxyphenyl)-5-fluoro-2,4-pyrimidinediamine] are 174 nM and 8100 nM.
Take `COc1ccc(Nc2nc(Nc3cccc(S(N)(=O)=O)c3)ncc2F)cn1` [VII-6, N2-(3-Aminosulfonylphenyl)-5-fluoro-N4-(2-methoxypyrid-5-yl)-2,4-pyrimidinediamine]: the IC50 in assay [1] came to 2000 nM; in assay [2] it was 23400 nM.
For the molecule `COc1ccc(Nc2nc(Nc3ccc(C)c(S(N)(=O)=O)c3)ncc2F)nc1N` [VII-9, N2-(3-Aminosulfonyl-4-methylphenyl)-N4-[2-amino-3-methoxypyrid-6-yl]-5-fluoro-2,4-pyrimidinediamine], the IC50 turned out to be 2720 nM in assay [1] and 17100 nM in assay [2].
On the same counts, the results for `Cc1ccc(Nc2ncc(C)c(Nc3ccc4c(c3)NC(=O)CO4)n2)cc1S(N)(=O)=O` [VII-30, N2-(3-Aminosulphonyl-4-methylphenyl)-5-methyl-N4-(3-oxo-benz[1,4]oxazin-6-yl)-2,4-pyrimidinediamine] are 26.8 nM and 8920 nM.
Turning to `Cc1ccc(Nc2ncc(F)c(Nc3ccc4c(c3)NC(=O)CS4)n2)cc1S(N)(=O)=O` [VII-44, N2-(3-Aminosulphonyl-4-methyl-phenyl)-5-fluoro-N4-(3-oxo-4H-benzo[1,4]thiazin-6-yl)-2,4-pyrimidinediamine], the results for the IC50 in assay [1] and in assay [2] were 546 nM and 9120 nM, respectively.
Consider `CN1C(=O)CSc2ccc(Nc3nc(Nc4cccc(S(N)(=O)=O)c4)ncc3F)cc21` [VII-49, N2-(3-Aminosulfonylphenyl)-5-fluoro-N4-(4-methyl-3-oxo-benz[1,4]thiazin-6-yl)-2,4-pyrimidinediamine], for which the results for the IC50 in assay [1] and in assay [2] were 54.9 nM and 3060 nM, respectively.
As for `Cc1ccc(Nc2ncc(F)c(Nc3ccc4oc(C#N)cc4c3)n2)cc1S(N)(=O)=O` [VII-53, N2-(3-Aminosulfonyl-4-methylphenyl)-N4-(2-cyanobenzofuran-5-yl)-5-fluoro-2,4-pyrimidinediamine], the IC50 came to 484 nM in assay [1] and 5460 nM in assay [2].
On the same counts, the results for `Cc1ccc(Nc2ncc(F)c(Nc3ccc4sccc4c3)n2)cc1S(N)(=O)=O` [VII-57, N2-(3-Aminosulfonyl-4-methylphenyl)-N4-(benzothiophen-5-yl)-5-fluoro-2,4-pyrimidinediamine] are 818 nM and 10700 nM.
On the same counts, the results for `Cc1ccc(Nc2ncc(F)c(Nc3ccc4ncccc4c3)n2)cc1S(N)(=O)=O` [VII-69, N2-(3-Aminosulfonyl-4-methylphenyl)-5-fluoro-N4-(quinolin-6-yl)-2,4-pyrimidinediamine] are 696 nM and 7500 nM.
Take `NS(=O)(=O)c1cccc(Nc2ncc(F)c(Nc3ccc4ncccc4c3)n2)c1` [VII-70, N2-(3-Aminosulfonylphenyl)-5-fluoro-N4-(quinolin-6-yl)-2,4-pyrimidinediamine]: the IC50 in assay [1] was 375 nM; in assay [2], 6480 nM.
On the same counts, the results for `Cc1ccc2cc(Nc3nc(Nc4ccc(C)c(S(N)(=O)=O)c4)ncc3F)ccc2n1` [VII-71, N2-(3-Aminosulfonyl-4-methylphenyl)-5-fluoro-N4-(2-methylquinolin-6-yl)-2,4-pyrimidinediamine] are 569 nM and 5470 nM.
In the case of `Cc1ccc2cc(Nc3nc(Nc4cccc(S(N)(=O)=O)c4)ncc3F)ccc2n1` [VII-72, N2-(3-Aminosulfonylphenyl)-5-fluoro-N4-(2-methylquinolin-6-yl)-2,4-pyrimidinediamine], the IC50 was determined as 415 nM in assay [1] and 9930 nM in assay [2].
